This experiment concerns the target T1, SIRT1 (Homo sapiens, UniProt Q96EB6).
T1 sequence (Q96EB6 1-747): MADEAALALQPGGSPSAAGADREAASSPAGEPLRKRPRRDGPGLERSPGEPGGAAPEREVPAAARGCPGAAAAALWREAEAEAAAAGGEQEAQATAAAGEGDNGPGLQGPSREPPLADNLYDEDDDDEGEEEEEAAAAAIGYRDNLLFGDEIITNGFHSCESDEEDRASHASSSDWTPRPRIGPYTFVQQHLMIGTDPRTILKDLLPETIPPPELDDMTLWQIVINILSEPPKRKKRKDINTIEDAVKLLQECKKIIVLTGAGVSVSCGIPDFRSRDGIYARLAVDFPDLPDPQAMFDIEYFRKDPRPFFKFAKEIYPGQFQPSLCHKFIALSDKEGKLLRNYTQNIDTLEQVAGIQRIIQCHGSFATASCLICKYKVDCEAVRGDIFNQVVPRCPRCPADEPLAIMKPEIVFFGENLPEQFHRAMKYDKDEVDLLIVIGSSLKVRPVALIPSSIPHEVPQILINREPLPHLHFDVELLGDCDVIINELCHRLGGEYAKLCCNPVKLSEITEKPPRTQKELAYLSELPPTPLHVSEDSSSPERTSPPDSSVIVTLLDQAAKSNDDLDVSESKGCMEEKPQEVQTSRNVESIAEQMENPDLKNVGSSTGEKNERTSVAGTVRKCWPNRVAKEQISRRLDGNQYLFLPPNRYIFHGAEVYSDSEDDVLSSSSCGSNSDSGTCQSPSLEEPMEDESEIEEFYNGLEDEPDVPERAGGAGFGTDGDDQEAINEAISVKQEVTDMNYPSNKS
The experiment can be described thus: Trp mass spectrometry assay (SIRT1 activation). The format is biochemical. Conditions: Trp mass spectrometry assay; for Tryp AVG EC1.5 (μM): EC1.5 = concentration of test compound that results in 150% activation of SIRT1; for Emax: percent maximum fold activation of SIRT1, read-out: Tryp % Fold Act. The procedure, abridged: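 Activation is expressed as EC1.5, the concentration raising activity 50% above DMSO control, and as maximum percent of control. Mass-spec readout was OAADPR or deacetylated Trp peptide after a formic-acid-quenched 25-min, 25 °C reaction: 10 nM bacterially expressed His-SIRT1, 0.5 μM acetyl-p53-derived peptide, 120 μM NAD+, pH 7.5 HEPES with […].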

As for `COc1cc(NC(=O)N2c3nc(-c4cccc(OC(F)(F)F)c4)ccc3N3CC[C@H]2C3)ncn1` [Example 135], the “Tryp AVG EC1.5 (μM)” value is “A (EC1.5<1 μM)” and the Emax was not below 150%.

As to `O=C(Nc1ccccn1)N1c2nc(-c3cccc(N4CCCC4)c3)ccc2N2CC[C@H]1C2` [Example 136], the “Tryp AVG EC1.5 (μM)” value was “A (EC1.5<1 μM)” and the Emax is not below 150%.

Take `O=C(Nc1ccccn1)N1c2nc(-c3ccccc3C(F)(F)F)ccc2N2CC[C@H]1C2` [Example 137]: the “Tryp AVG EC1.5 (μM)” value is on record as “C (EC1.5>25 μM)” and the Emax was less than 150%.

Turning to `O=C(Nc1ccccn1)N1c2nc(-c3cccc(OC(F)(F)F)c3)ccc2N2CC[C@H]1C2` [Example 138], the “Tryp AVG EC1.5 (μM)” value is on record as “A (EC1.5<1 μM)” and the Emax is not below 150%.

As to `N#Cc1cccc(-c2ccc3c(n2)N(C(=O)Nc2ccccn2)[C@H]2CCN3C2)c1` [Example 139], the “Tryp AVG EC1.5 (μM)” value is “A (EC1.5<1 μM)” and the Emax was not below 150%.

For the compound `COc1cc(NC(=O)N2c3nc(-c4cccc(C#N)c4)ccc3N3CC[C@H]2C3)ncn1` [Example 140], the “Tryp AVG EC1.5 (μM)” value is reported as “A (EC1.5<1 μM)” and the Emax is not below 150%.

Turning to `O=C(Nc1ccc(F)cn1)N1c2nc(-c3cccc(Cl)c3)ccc2N2CCC[C@H]1C2` [Example 141], the “Tryp AVG EC1.5 (μM)” value was “A (EC1.5<1 μM)” and the Emax was not below 150%.

With `O=C(Nc1ccccn1)N1c2nc(-c3ccnc(C(F)(F)F)c3)ccc2N2CC[C@H]1C2` [Example 142], the “Tryp AVG EC1.5 (μM)” value is on record as “A (EC1.5<1 μM)” and the Emax is not below 150%.

With `O=C(Nc1cccnn1)N1c2nc(C3CCCC(C(F)(F)F)C3)ccc2N2CC[C@H]1C2` (stereo partly drawn) [Example 143], the “Tryp AVG EC1.5 (μM)” value was “B (EC1.5 1-25 μM)” and the Emax was not below 150%.

Take `O=C(Nc1ccc(F)cn1)N1c2nc(C3CCCC(C(F)(F)F)C3)ccc2N2CC[C@H]1C2` (stereo partly drawn) [Example 144]: the “Tryp AVG EC1.5 (μM)” value is reported as “B (EC1.5 1-25 μM)” and the Emax was not below 150%.

Regarding `O=C(Nc1cncc(F)c1)N1c2nc(C3CCCC(C(F)(F)F)C3)ccc2N2CC[C@H]1C2` (stereo partly drawn) [Example 145], the “Tryp AVG EC1.5 (μM)” value was “A (EC1.5<1 μM)” and the Emax was not below 150%.

For `O=C(Nc1ccc(F)cn1)N1c2nc(-c3cccc(OC[C@@H](O)CO)c3)ccc2N2CC[C@H]1C2` [Example 146], the “Tryp AVG EC1.5 (μM)” value was “B (EC1.5 1-25 μM)” and the Emax was not below 150%.

With `N#Cc1cccc(-c2ccc3c(n2)N(C(=O)Nc2ccncc2F)[C@H]2CCN3C2)c1` [Example 147], the “Tryp AVG EC1.5 (μM)” value is given as “B (EC1.5 1-25 μM)” and the Emax is not below 150%.

For `O=C(Nc1ccncc1F)N1c2nc(C3CCCC(C(F)(F)F)C3)ccc2N2CC[C@H]1C2` (stereo partly drawn) [Example 148], the “Tryp AVG EC1.5 (μM)” value is given as “B (EC1.5 1-25 μM)” and the Emax was not below 150%.

Take `Cc1nc(NC(=O)N2c3nc(C4CCCC(C(F)(F)F)C4)ccc3N3CC[C@H]2C3)sc1C` (stereo partly drawn) [Example 149]: the “Tryp AVG EC1.5 (μM)” value is “B (EC1.5 1-25 μM)” and the Emax was not below 150%.

Turning to `O=C(Nc1ccncc1F)N1c2nc(-c3cccc(N4CCCC4)c3)ccc2N2CC[C@H]1C2` [Example 150], the “Tryp AVG EC1.5 (μM)” value was “A (EC1.5<1 μM)” and the Emax is not below 150%.

On to `O=C(Nc1ccncc1F)N1c2nc(-c3ccnc(C(F)(F)F)c3)ccc2N2CC[C@H]1C2` [Example 151], for which the “Tryp AVG EC1.5 (μM)” value is “A (EC1.5<1 μM)” and the Emax is not below 150%.

In the case of `O=C(Nc1ccncc1F)N1c2nc(-c3ccccc3C(F)(F)F)ccc2N2CC[C@H]1C2` [Example 152], the “Tryp AVG EC1.5 (μM)” value was “C (EC1.5>25 μM)” and the Emax was not below 150%.

In the case of `O=C(Nc1ccncc1F)N1c2nc(-c3cccc(OC(F)(F)F)c3)ccc2N2CC[C@H]1C2` [Example 153], the “Tryp AVG EC1.5 (μM)” value is “A (EC1.5<1 μM)” and the Emax is not below 150%.

With `O=C(Nc1ccnc(F)c1)N1c2nc(C3CCCC(C(F)(F)F)C3)ccc2N2CC[C@H]1C2` (stereo partly drawn) [Example 154], the “Tryp AVG EC1.5 (μM)” value is “B (EC1.5 1-25 μM)” and the Emax is not below 150%.

Regarding `O=C(Nc1ccccn1)N1c2nc(-c3cccc(OC[C@@H](O)CO)c3)ccc2N2CC[C@H]1C2` [Example 155], the “Tryp AVG EC1.5 (μM)” value is recorded as “B (EC1.5 1-25 μM)” and the Emax was not below 150%.

For the compound `COc1cc(NC(=O)N2c3nc(-c4cccc(OC[C@@H](O)CO)c4)ccc3N3CC[C@H]2C3)ncn1` [Example 156], the “Tryp AVG EC1.5 (μM)” value is listed as “A (EC1.5<1 μM)” and the Emax was not below 150%.

Turning to `O=C(Nc1ccncc1F)N1c2nc(-c3cccc(OC[C@@H](O)CO)c3)ccc2N2CC[C@H]1C2` [Example 157], the “Tryp AVG EC1.5 (μM)” value is “B (EC1.5 1-25 μM)” and the Emax was not below 150%.

Turning to `O=C(Nc1ccccn1)N1c2nc(-c3cccc(C(F)(F)F)c3)ccc2N2CCC1CC2` [Example 158], the “Tryp AVG EC1.5 (μM)” value is recorded as “B (EC1.5 1-25 μM)” and the Emax was not below 150%.

For `COc1cc(-c2cccc(C(F)(F)F)c2)nc2c1N1CC[C@@H](C1)N2C(=O)Nc1ccccn1` [Example 159], the “Tryp AVG EC1.5 (μM)” value was “A (EC1.5<1 μM)” and the Emax was not below 150%.

For `COc1cc(-c2cccc(C(F)(F)F)c2)nc2c1N1CC[C@@H](C1)N2C(=O)Nc1ccncc1` [Example 160], the “Tryp AVG EC1.5 (μM)” value is recorded as “A (EC1.5<1 μM)” and the Emax was not below 150%.

For the compound `COc1cc(-c2cccc(C(F)(F)F)c2)nc2c1N1CC[C@@H](C1)N2C(=O)Nc1nc(C)c(C)s1` [Example 161], the “Tryp AVG EC1.5 (μM)” value is reported as “A (EC1.5<1 μM)” and the Emax is not below 150%.

Take `O=C(Nc1cccc(-c2cnco2)c1)N1c2nc(-c3cccc(OC(F)(F)F)c3)ccc2N2CC[C@H]1C2` [Example 162]: the “Tryp AVG EC1.5 (μM)” value was “A (EC1.5<1 μM)” and the Emax was not below 150%.

Regarding `O=C(Nc1cccnc1)N1c2nc(-c3cccc(OC(F)(F)F)c3)ccc2N2CC[C@H]1C2` [Example 163], the “Tryp AVG EC1.5 (μM)” value is “A (EC1.5<1 μM)” and the Emax is not below 150%.

For the compound `O=C(Nc1cnccn1)N1c2nc(-c3cccc(OC(F)(F)F)c3)ccc2N2CC[C@H]1C2` [Example 164], the “Tryp AVG EC1.5 (μM)” value is reported as “A (EC1.5<1 μM)” and the Emax was not below 150%.

As to `Cc1nc(NC(=O)N2c3nc(-c4cccc(OC(F)(F)F)c4)ccc3N3CC[C@H]2C3)sc1C` [Example 165], the “Tryp AVG EC1.5 (μM)” value is listed as “A (EC1.5<1 μM)” and the Emax was not below 150%.

As to `O=C(Nc1ccncn1)N1c2nc(-c3cccc(OC(F)(F)F)c3)ccc2N2CC[C@H]1C2` [Example 166], the “Tryp AVG EC1.5 (μM)” value is recorded as “A (EC1.5<1 μM)” and the Emax is not below 150%.

Regarding `Cn1cc(NC(=O)N2c3nc(-c4cccc(OC(F)(F)F)c4)ccc3N3CC[C@H]2C3)cn1` [Example 167], the “Tryp AVG EC1.5 (μM)” value is given as “B (EC1.5 1-25 μM)” and the Emax is not below 150%.

For `COc1cc(NC(=O)N2c3nc(-c4cccc(C(F)(F)F)c4)ccc3N3CCC2CC3)ncn1` [Example 168], the “Tryp AVG EC1.5 (μM)” value is on record as “A (EC1.5<1 μM)” and the Emax was not below 150%.

With `COc1nccc(NC(=O)N2c3nc(-c4cccc(C(F)(F)F)c4)ccc3N3CCC2CC3)n1` [Example 169], the “Tryp AVG EC1.5 (μM)” value is on record as “B (EC1.5 1-25 μM)” and the Emax is not below 150%.

Turning to `COc1cc(NC(=O)N2c3nc(-c4cccc(C(F)(F)F)c4)ccc3N3CCC2CC3)nc(OC)n1` [Example 170], the “Tryp AVG EC1.5 (μM)” value is recorded as “A (EC1.5<1 μM)” and the Emax was not below 150%.

Take `O=C(Nc1cccnn1)N1c2nc(-c3cccc(C(F)(F)F)c3)ccc2N2CCC1CC2` [Example 171]: the “Tryp AVG EC1.5 (μM)” value is “B (EC1.5 1-25 μM)” and the Emax was not below 150%.

Consider `O=C(Nc1ccncn1)N1c2nc(-c3cccc(C(F)(F)F)c3)ccc2N2CCC1CC2` [Example 172], for which the “Tryp AVG EC1.5 (μM)” value is “B (EC1.5 1-25 μM)” and the Emax was not below 150%.

Turning to `Cc1nc(NC(=O)N2c3nc(-c4cccc(C(F)(F)F)c4)ccc3N3CCC2CC3)sc1C` [Example 173], the “Tryp AVG EC1.5 (μM)” value is reported as “A (EC1.5<1 μM)” and the Emax is not below 150%.

As to `O=C(Nc1cncc(F)c1)N1c2nc(-c3cccc(OC(F)(F)F)c3)ccc2N2CC[C@H]1C2` [Example 174], the “Tryp AVG EC1.5 (μM)” value is “A (EC1.5<1 μM)” and the Emax was not below 150%.

Take `Cn1ncc2cc(NC(=O)N3c4nc(-c5cccc(OC(F)(F)F)c5)ccc4N4CC[C@H]3C4)ccc21` [Example 175]: the “Tryp AVG EC1.5 (μM)” value is “A (EC1.5<1 μM)” and the Emax is not below 150%.

For the compound `COc1nccc(NC(=O)N2c3nc(-c4cccc(OC(F)(F)F)c4)ccc3N3CC[C@H]2C3)n1` [Example 176], the “Tryp AVG EC1.5 (μM)” value is recorded as “A (EC1.5<1 μM)” and the Emax is not below 150%.

The values are drawn from patent US9765075B2, “Substituted bridged urea analogs as sirtuin modulators” (GLAXOSMITHKLINE LLC, priority 2013, dated 2017).
